Experiments:
rice = assay: Test C flooded paddy test; type: in vivo, Oryza sativa; conditions: Flood, scale 0 to 100 (0 no effect, 100 complete control), 13 to 15 days
In short: (§1)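 Ratings were visual and made relative to untreated controls after 13 to 15 greenhouse days.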

ducksalad = assay: Test C flooded paddy test; type: in vivo, Heteranthera limosa; conditions: Flood, scale 0 to 100 (0 no effect, 100 complete control), 13 to 15 days
In short: as §1

barnyardgrass = assay: Test C flooded paddy test; type: in vivo, Echinochloa crus-galli; conditions: Flood, scale 0 to 100 (0 no effect, 100 complete control), 13 to 15 days
In short: as §1

lambsquarters = assay: Test E preemergence; type: in vivo, Chenopodium album; conditions: for Lambsquarters plant response rating: scale 0 to 100 (0 no effect, 100 complete control); for Plant response rating, Lambsquarters: scale 0 to 100, 0 no effect, 100 complete control
In short: (§2)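 Compound in a non-phytotoxic solvent mixture with surfactant was applied preemergence to seeds in silt loam soil, or postemergence to plants 2 to 18 cm tall grown in peat-based potting medium. Plants were kept in a greenhouse for 14 to 21 days, then rated visually against untreated controls on a 0 (no effect) to 100 (complete control) scale.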

wild poinsettia = assay: Test E preemergence; type: in vivo, Euphorbia heterophylla; conditions: for Poinsettia, Wild plant response rating: scale 0 to 100 (0 no effect, 100 complete control); for Plant response rating, Poinsettia, Wild: scale 0 to 100, 0 no effect, 100 complete control
In short: as §2

waterhemp = assay: Test E preemergence; type: in vivo, Amaranthus rudis; conditions: for Waterhemp plant response rating: scale 0 to 100 (0 no effect, 100 complete control); for Plant response rating, Waterhemp: scale 0 to 100, 0 no effect, 100 complete control
In short: as §2

Brazilian crabgrass = assay: Test E preemergence; type: in vivo, Digitaria horizontalis; conditions: for Crabgrass, Brazil plant response rating: scale 0 to 100 (0 no effect, 100 complete control); for Plant response rating, Crabgrass, Brazil: scale 0 to 100, 0 no effect, 100 complete control
In short: as §2

goosegrass = assay: Test E preemergence; type: in vivo, Eleusine indica; conditions: for Goosegrass plant response rating: scale 0 to 100 (0 no effect, 100 complete control); for Plant response rating, Goosegrass: scale 0 to 100, 0 no effect, 100 complete control
In short: as §2

field bindweed = assay: Test E preemergence; type: in vivo, Convolvulus arvensis; conditions: for Field Bindweed plant response rating: scale 0 to 100 (0 no effect, 100 complete control); for Plant response rating, Field Bindweed: scale 0 to 100, 0 no effect, 100 complete control
In short: as §2

kochia = assay: Test E preemergence; type: in vivo, Kochia scoparia; conditions: for Kochia plant response rating: scale 0 to 100 (0 no effect, 100 complete control); for Plant response rating, Kochia: scale 0 to 100, 0 no effect, 100 complete control
In short: as §2

yellow nutsedge = assay: Test E preemergence; type: in vivo, Cyperus esculentus; conditions: for Nutsedge, Yellow plant response rating: scale 0 to 100 (0 no effect, 100 complete control); for Plant response rating, Nutsedge, Yellow: scale 0 to 100, 0 no effect, 100 complete control
In short: as §2

hairy beggarticks = assay: Test E preemergence; type: in vivo, Bidens pilosa; conditions: for Beggarticks plant response rating: scale 0 to 100 (0 no effect, 100 complete control); for Plant response rating, Beggarticks: scale 0 to 100, 0 no effect, 100 complete control
In short: as §2

N#Cc1cccc(Oc2ncc(Br)cn2)c1-n1cc(C(F)(F)F)cn1 [Compound 59, 3-[(5-bromo-2-pyrimidinyl)oxy]-2-[4-(trifluoromethyl)-1H-pyrazol-1-yl]benzonitrile]
Plant response rating, Rice (rice; 31 g ai/ha): 0 | Plant response rating, Rice (rice; 62 g ai/ha): 15 | Plant response rating, Rice (rice; 125 g ai/ha): 20 | Plant response rating, Rice (rice; 250 g ai/ha): 20 | Plant response rating, Ducksalad (ducksalad; 31 g ai/ha): 50 | Plant response rating, Ducksalad (ducksalad; 62 g ai/ha): 75 | Plant response rating, Ducksalad (ducksalad; 125 g ai/ha): 95 | Plant response rating, Ducksalad (ducksalad; 250 g ai/ha): 95 | Plant response rating, Barnyardgrass (barnyardgrass; 31 g ai/ha): 0 | Plant response rating, Barnyardgrass (barnyardgrass; 62 g ai/ha): 0 | Plant response rating, Barnyardgrass (barnyardgrass; 125 g ai/ha): 30 | Plant response rating, Barnyardgrass (barnyardgrass; 250 g ai/ha): 40 | Lambsquarters plant response rating (lambsquarters; 16 g ai/ha): 98 | Lambsquarters plant response rating (lambsquarters; 31 g ai/ha): 98 | Lambsquarters plant response rating (lambsquarters; 62 g ai/ha): 100 | Plant response rating, Lambsquarters (lambsquarters; 125 g ai/ha): 100 | Plant response rating, Lambsquarters (lambsquarters; 250 g ai/ha): 100 | Poinsettia, Wild plant response rating (wild poinsettia; 16 g ai/ha): 0 | Poinsettia, Wild plant response rating (wild poinsettia; 31 g ai/ha): 0 | Poinsettia, Wild plant response rating (wild poinsettia; 62 g ai/ha): 10 | Plant response rating, Poinsettia, Wild (wild poinsettia; 125 g ai/ha): 20 | Plant response rating, Poinsettia, Wild (wild poinsettia; 250 g ai/ha): 100 | Waterhemp plant response rating (waterhemp; 16 g ai/ha): 100 | Waterhemp plant response rating (waterhemp; 31 g ai/ha): 100 | Waterhemp plant response rating (waterhemp; 62 g ai/ha): 100 | Plant response rating, Waterhemp (waterhemp; 125 g ai/ha): 100 | Plant response rating, Waterhemp (waterhemp; 250 g ai/ha): 100 | Crabgrass, Brazil plant response rating (Brazilian crabgrass; 16 g ai/ha): 80 | Crabgrass, Brazil plant response rating (Brazilian crabgrass; 31 g ai/ha): 100 | Crabgrass, Brazil plant response rating (Brazilian crabgrass; 62 g ai/ha): 100 | Plant response rating, Crabgrass, Brazil (Brazilian crabgrass; 125 g ai/ha): 100 | Plant response rating, Crabgrass, Brazil (Brazilian crabgrass; 250 g ai/ha): 100 | Goosegrass plant response rating (goosegrass; 16 g ai/ha): 15 | Goosegrass plant response rating (goosegrass; 31 g ai/ha): 25 | Goosegrass plant response rating (goosegrass; 62 g ai/ha): 65 | Plant response rating, Goosegrass (goosegrass; 125 g ai/ha): 98 | Plant response rating, Goosegrass (goosegrass; 250 g ai/ha): 98 | Field Bindweed plant response rating (field bindweed; 16 g ai/ha): 0 | Field Bindweed plant response rating (field bindweed; 31 g ai/ha): 5 | Field Bindweed plant response rating (field bindweed; 62 g ai/ha): 60 | Plant response rating, Field Bindweed (field bindweed; 125 g ai/ha): 60 | Plant response rating, Field Bindweed (field bindweed; 250 g ai/ha): 100 | Kochia plant response rating (kochia; 16 g ai/ha): 20 | Kochia plant response rating (kochia; 31 g ai/ha): 80 | Kochia plant response rating (kochia; 62 g ai/ha): 100 | Plant response rating, Kochia (kochia; 125 g ai/ha): 100 | Plant response rating, Kochia (kochia; 250 g ai/ha): 100 | Nutsedge, Yellow plant response rating (yellow nutsedge; 16 g ai/ha): 0 | Nutsedge, Yellow plant response rating (yellow nutsedge; 31 g ai/ha): 0 | Nutsedge, Yellow plant response rating (yellow nutsedge; 62 g ai/ha): 0 | Plant response rating, Nutsedge, Yellow (yellow nutsedge; 125 g ai/ha): 30 | Plant response rating, Nutsedge, Yellow (yellow nutsedge; 250 g ai/ha): 50 | Beggarticks plant response rating (hairy beggarticks; 16 g ai/ha, preemergence): 0 | Beggarticks plant response rating (hairy beggarticks; 31 g ai/ha, preemergence): 0 | Plant response rating, Beggarticks (hairy beggarticks; Preemergence, 62 g ai/ha): 0 | Plant response rating, Beggarticks (hairy beggarticks; preemergence, 125 g ai/ha): 0 | Plant response rating, Beggarticks (hairy beggarticks; preemergence, 250 g ai/ha): 25

FC(F)(F)c1cnn(-c2c(Cl)cccc2Oc2ncc(Cl)cn2)c1 [Compound 167]
Plant response rating, Rice (rice; 31 g ai/ha): 0 | Plant response rating, Rice (rice; 62 g ai/ha): 0 | Plant response rating, Rice (rice; 125 g ai/ha): 0 | Plant response rating, Rice (rice; 250 g ai/ha): 0 | Plant response rating, Ducksalad (ducksalad; 31 g ai/ha): 0 | Plant response rating, Ducksalad (ducksalad; 62 g ai/ha): 50 | Plant response rating, Ducksalad (ducksalad; 125 g ai/ha): 60 | Plant response rating, Ducksalad (ducksalad; 250 g ai/ha): 80 | Plant response rating, Barnyardgrass (barnyardgrass; 31 g ai/ha): 0 | Plant response rating, Barnyardgrass (barnyardgrass; 62 g ai/ha): 0 | Plant response rating, Barnyardgrass (barnyardgrass; 125 g ai/ha): 0 | Plant response rating, Barnyardgrass (barnyardgrass; 250 g ai/ha): 0 | Lambsquarters plant response rating (lambsquarters; 31 g ai/ha): 98 | Lambsquarters plant response rating (lambsquarters; 62 g ai/ha): 100 | Plant response rating, Lambsquarters (lambsquarters; 125 g ai/ha): 100 | Poinsettia, Wild plant response rating (wild poinsettia; 31 g ai/ha): 0 | Poinsettia, Wild plant response rating (wild poinsettia; 62 g ai/ha): 20 | Plant response rating, Poinsettia, Wild (wild poinsettia; 125 g ai/ha): 25 | Waterhemp plant response rating (waterhemp; 31 g ai/ha): 98 | Waterhemp plant response rating (waterhemp; 62 g ai/ha): 98 | Plant response rating, Waterhemp (waterhemp; 125 g ai/ha): 100 | Crabgrass, Brazil plant response rating (Brazilian crabgrass; 16 g ai/ha): 0 | Crabgrass, Brazil plant response rating (Brazilian crabgrass; 31 g ai/ha): 20 | Crabgrass, Brazil plant response rating (Brazilian crabgrass; 62 g ai/ha): 75 | Plant response rating, Crabgrass, Brazil (Brazilian crabgrass; 125 g ai/ha): 100 | Goosegrass plant response rating (goosegrass; 31 g ai/ha): 60 | Goosegrass plant response rating (goosegrass; 62 g ai/ha): 75 | Plant response rating, Goosegrass (goosegrass; 125 g ai/ha): 98 | Field Bindweed plant response rating (field bindweed; 16 g ai/ha): 0 | Field Bindweed plant response rating (field bindweed; 31 g ai/ha): 0 | Field Bindweed plant response rating (field bindweed; 62 g ai/ha): 0 | Plant response rating, Field Bindweed (field bindweed; 125 g ai/ha): 10 | Kochia plant response rating (kochia; 31 g ai/ha): 40 | Kochia plant response rating (kochia; 62 g ai/ha): 65 | Plant response rating, Kochia (kochia; 125 g ai/ha): 90 | Nutsedge, Yellow plant response rating (yellow nutsedge; 31 g ai/ha): 0 | Nutsedge, Yellow plant response rating (yellow nutsedge; 62 g ai/ha): 0 | Plant response rating, Nutsedge, Yellow (yellow nutsedge; 125 g ai/ha): 0 | Beggarticks plant response rating (hairy beggarticks; 16 g ai/ha, preemergence): 0 | Beggarticks plant response rating (hairy beggarticks; 31 g ai/ha, preemergence): 0 | Beggarticks plant response rating (hairy beggarticks; 62 g ai/ha, preemergence): 0 | Plant response rating, Beggarticks (hairy beggarticks; preemergence, 125 g ai/ha): 0

— US9695155B2, “Herbicidal substituted pyrimidinyloxy benzene compounds” (E. I. DU PONT DE NEMOURS AND COMPANY, priority 2013, dated 2017)
